From BindingDB's records for doi:10.1007/s10822-022-00478-x (Roche Innovation Center Basel, F. Hoffmann-La Roche Ltd., 2022) come the findings set out here.

Molecules are shown by their SMILES.

What is called IC50 is the concentration that inhibits the measured activity by half.

The experiment concerns the target cAMP and cAMP-inhibited cGMP 3',5'-cyclic phosphodiesterase 10A (Homo sapiens, UniProt Q9Y233). Kind of experiment: PDE10A assay. The method, boiled down: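 Human PDE10A (2 ng/well) preincubated 15 min RT with compound in HEPES pH 7.5, 10 mM MgCl2, BSA, then reacted 15 min with 50 nM [3H]cGMP/cGMP substrate. Stopped with Y-Si SPA beads; bound radioactivity counted, IC50 from four-parameter logistic, pIC50 = −log10(IC50).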
`O=C(Nc1ccc(N2CCCC2=O)cc1)c1nc(C2CC2)ccc1Nc1cncnc1` [Roche-Dataset for PDE10A, Compound 733] registered a concentration for half-maximal inhibition (IC50) of 18 nM.
The value for `Cn1cc(-c2ccccc2)nc1CCc1nc2ccccc2nc1N1CCCC1` [Roche-Dataset for PDE10A, Compound 98] was 3.44 nM; that for `O=C(Nc1ccn2nc(-c3ccccc3)nc2c1)c1cc(Cl)nc(N2CCCC2)c1` [Roche-Dataset for PDE10A, Compound 132] was 48 nM.
The value for `Cn1ncc(C(=O)N2CCCC2)c1C(=O)Nc1ccn2nc(N3CCOCC3)nc2c1` [Roche-Dataset for PDE10A, Compound 402] was 3.25 nM; that for `COCCN(C)C(=O)c1cnn(C)c1C(=O)N[C@@H]1CCn2cc(-c3ccccc3)nc2C1` [Roche-Dataset for PDE10A, Compound 112] was 34 nM.
In turn, `Cn1ncc(Br)c1C(=O)Nc1ccn2nc(-c3ccccc3)nc2c1` [Roche-Dataset for PDE10A, Compound 371] showed a half-maximal inhibitory concentration (IC50) of 35 nM.
The compound `Cn1ncc(C(=O)N2CCC2)c1C(=O)Nc1ccn2nc(-c3ccnc(Cl)c3)nc2c1` [Roche-Dataset for PDE10A, Compound 218] had an IC50 of 6.9 nM.
The value for `O=C(N[C@@H]1C[C@H]1c1ccccc1)c1nc(C2CC2)cnc1Nc1cncnc1` [Roche-Dataset for PDE10A, Compound 749] was 711 nM.
The value for `O=C(Nc1ccncc1C(F)(F)F)c1ccc2cc(-c3ccccc3)nn2c1` [Roche-Dataset for PDE10A, Compound 367] was 1070 nM; that for `CCc1nc(C)c(C(=O)Nc2cc3nc(-c4ccccc4)[nH]c3cc2C(=O)NCC2(C)COC2)o1` [Roche-Dataset for PDE10A, Compound 178] was 3.53 nM.
For `Cn1cc(-c2ccccc2)nc1COc1nc(OC2CCOCC2)c2cc(Cl)ccc2n1` [Roche-Dataset for PDE10A, Compound 100] the value was 16 nM; for `CN(C(=O)c1c(C(=O)N2CCC2)cnn1C)c1ccn2nc(-c3ccccc3)nc2c1` [Roche-Dataset for PDE10A, Compound 1062], 1450 nM; for `O=C(N[C@@H](CO)Cc1ccccc1)c1nc(C2CC2)cnc1Nc1cncnc1` [Roche-Dataset for PDE10A, Compound 641], 1430 nM.
`Cn1ncc(C(=O)N2CCC2)c1C(=O)N[C@@H]1CCn2c(nc(-c3ccccc3)c2Cl)C1` [Roche-Dataset for PDE10A, Compound 225] showed an IC50 of 6.96 nM.
Turning to `Cc1c(Cl)cc(OCC(=O)N2CCOCC2)c2nc(CCc3nc(N4CCCC4)nn3C)nn12` [Roche-Dataset for PDE10A, Compound 23], the IC50 is 2.07 nM. Against the preceding compound, the IC50 is about 3.4-fold lower.
On to `Cc1[nH]c(-c2cccnc2)nc1CCN1C(=O)c2ccccc2C1=O` [Roche-Dataset for PDE10A, Compound 260], for which the concentration for half-maximal inhibition (IC50) came to 1540 nM.
The compound `O=C(Nc1ccn(CC(F)(F)F)n1)c1nc(Cl)ccc1Nc1cncnc1` [Roche-Dataset for PDE10A, Compound 859] gave a concentration for half-maximal inhibition (IC50) of 156 nM.
As for `Cc1ncc(C)n2nc(CCc3nc(N4CC[C@@H](C)C4)nn3C)nc12` [Roche-Dataset for PDE10A, Compound 447], the 50% inhibitory concentration (IC50) was found to be 28 nM.
The value for `O=C(Nc1cc(-c2ccccn2)nn1CC1CCCCC1)c1nc(C2CC2)ccc1Nc1cncnc1` [US8470820, 32] was 1.06 nM.
For `CC(=O)c1ccc(NC(=O)c2nc(C3CC3)ccc2Nc2cncnc2)s1` [Roche-Dataset for PDE10A, Compound 974] the value was 36 nM; for `CCOC(=O)c1cnn(C)c1C(=O)N(C)c1ccn2nc(-c3ccccc3)nc2c1` [Roche-Dataset for PDE10A, Compound 825], 10000 nM; for `Cc1ccccc1-c1cn2c(n1)C[C@H](NC(=O)c1c(C(=O)N3CCC3)cnn1C)CC2` [Roche-Dataset for PDE10A, Compound 495], 7.85 nM.
As to `O=C(NCCNS(=O)(=O)c1ccccc1)c1nc(C2CC2)cnc1Nc1cncnc1` [Roche-Dataset for PDE10A, Compound 839], half-maximal inhibition (IC50) was put at 403 nM.
Consider `COc1cnc(C)n2c(CCc3nc(N4CCCC4)nn3C)nnc12` [Roche-Dataset for PDE10A, Compound 633], for which 4190 nM corresponded to half-maximal inhibition (IC50).
Compound `CN(C)C(=O)Cc1csc(NC(=O)c2nc(C3CC3)cnc2Nc2cncnc2)n1` [Roche-Dataset for PDE10A, Compound 775] had a half-maximal inhibitory concentration (IC50) of 13 nM.
With `O=C(NC[C@@H]1[C@@H](c2ccccc2)C1(F)F)c1nc(C2CC2)cnc1Nc1cncnc1` [Roche-Dataset for PDE10A, Compound 661], the IC50 is 954 nM.
`Cn1cc(-c2ccccc2)nc1COc1cnc(Br)c(C(=O)Nc2cncnc2)n1` [Roche-Dataset for PDE10A, Compound 716] displayed a half-maximal inhibitory concentration (IC50) of 2940 nM. Compared with the last compound, the IC50 is about 3.1-fold higher.
Take `Cn1ncc(C(=O)N2CCC2)c1C(=O)Nc1ccn(-c2ccccn2)n1` [Roche-Dataset for PDE10A, Compound 1095]: 785 nM corresponded to half-maximal inhibition (IC50).
For `O=C(NCc1ccncn1)c1nc(C2CC2)cnc1Nc1cncnc1` [Roche-Dataset for PDE10A, Compound 1017] the value was 768 nM; for `O=C(N[C@@H]1C[C@@H](CO)N(c2ccc(Cl)cn2)C1)c1nc(C2CC2)ccc1Nc1cncnc1` [Roche-Dataset for PDE10A, Compound 118], 2.35 nM; for `CCOC(=O)Cc1csc(NC(=O)c2nc(C3CC3)cnc2Nc2cncnc2)n1` [Roche-Dataset for PDE10A, Compound 914], 4.99 nM.
`CCn1nc(NC(=O)c2c(C(=O)N3CCC3)cnn2C)cc1-c1cccc(Cl)c1` [Roche-Dataset for PDE10A, Compound 744] returned an IC50 of 1630 nM.
The value for `Cn1ncc(C(=O)N2CCC2)c1C(=O)Nc1cc(C2CCC2)n(C2CCCC2)n1` [Roche-Dataset for PDE10A, Compound 1088] was 853 nM; that for `Cc1nc(-c2ccc(Cl)cc2)oc1C(=O)Nc1cc(-c2ccccn2)nn1C` [Roche-Dataset for PDE10A, Compound 947] was 967 nM.
In turn, `Cn1ncc(C(=O)N2CCC2)c1C(=O)Nc1ccn(CCN2CCOCC2)n1` [Roche-Dataset for PDE10A, Compound 1030] showed a concentration for half-maximal inhibition (IC50) of 368 nM.
In turn, `Cc1ncc(C)n2nc(/C=C/c3nc(Br)cn3-c3ccccc3)nc12` [Roche-Dataset for PDE10A, Compound 648] registered a half-maximal inhibitory concentration (IC50) of 202 nM.
The compound `Cn1ncc(C(=O)N2CCC2)c1C(=O)Nc1cc[nH]n1` [Roche-Dataset for PDE10A, Compound 1155] yielded an IC50 of 3130 nM. This IC50 is about 15-fold higher than that of the compound before.
As for `CC(C)Oc1cccc(NC(=O)c2nc(C3CC3)cnc2Nc2cncnc2)c1` [Roche-Dataset for PDE10A, Compound 721], the half-inhibitory concentration (IC50) came to 9.47 nM. This IC50 lies about 330-fold lower than the previous one.
For `O=C(c1nc(C2CC2)cnc1Nc1cncnc1)N1CCC(N2CCOCC2)CC1` [Roche-Dataset for PDE10A, Compound 1098] the value was 10000 nM; for `Cc1cc(NC(=O)c2c(C(=O)N3CCC3)cnn2C)nn1C1CCCC1` [Roche-Dataset for PDE10A, Compound 1063], 437 nM; for `O=C1c2ccccc2CN1c1ccc2nc(-c3ccccc3)[nH]c2c1` [Roche-Dataset for PDE10A, Compound 307], 371 nM.
For `O=C(Nc1cccc(N2CCOCC2)c1)c1nc(C2CC2)cnc1Nc1cncnc1` [Roche-Dataset for PDE10A, Compound 812] the value was 13 nM; for `COc1c(C)cnc(/C=C/c2nc(-c3ccccc3)cn2C)c1C` [Roche-Dataset for PDE10A, Compound 245], 987 nM.
